The values below come from patent US8436151B2, “Indoleamine 2,3-dioxygenase-2 antibodies” (Lankenau Institute for Medical Research, priority 2006, dated 2013).

The target in one data set is T1, IDO2 (Mus musculus, UniProt Q8R0V5).
T1 construct: The complete coding regions of murine IDO1 and IDO2 were cloned in-frame with the V5/His TAG coding region in pcDNA4/TO; expressed in transfected cells; host or cells: T-REx-293 cells (Invitrogen), pcDNA4/TO-muIDO2, doxycycline-induced
T1 sequence (Q8R0V5 1-405): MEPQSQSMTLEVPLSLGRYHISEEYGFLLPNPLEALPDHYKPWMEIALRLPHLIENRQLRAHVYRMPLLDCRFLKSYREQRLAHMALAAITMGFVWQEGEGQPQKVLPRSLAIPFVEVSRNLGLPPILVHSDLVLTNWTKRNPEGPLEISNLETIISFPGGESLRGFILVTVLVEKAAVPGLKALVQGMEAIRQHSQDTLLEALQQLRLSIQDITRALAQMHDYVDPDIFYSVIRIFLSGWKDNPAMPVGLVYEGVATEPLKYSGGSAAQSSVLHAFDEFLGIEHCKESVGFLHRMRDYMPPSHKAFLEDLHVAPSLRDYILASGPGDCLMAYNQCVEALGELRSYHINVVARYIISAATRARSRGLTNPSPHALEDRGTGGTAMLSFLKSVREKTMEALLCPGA
Put plainly: Cell-based kynurenine detection assay in IDO2 expressing T-REx cells. More on the design: species or system murine. The note with it: doxycycline-induced T-REx cells, increasing concentrations, 5 days (FIG. 8B). The procedure: This assay measures the product of the indoleamine 2,3-dioxygenase conversion of L-tryptophan to N-formyl-kynurenine by acid hydrolysis to kynurenine, which is measured indirectly though the absorbance (480 nm) of imine produced by the reaction of the aromatic amino group of klynurenine with p-dimethylaminobenzaldehyde (Ehrlich's reagent) as described by Takikawa et al. (J. Biol. Chem. (1988) 263:2041-2048). Typically, 200 μL of media from the test sample is combined with 12.5 μL of 30% TCA and incubated at 50° C. for 30 minutes. Evaporation was avoided by sealing the rim of the plate or tubes with parafilm. Samples are clarified by centrifugation for 10 minutes at 3-10K rpm. 100 μL of the supernatant was removed to a fresh well in an assay plate and mixed with 100 μL of fresh Ehrlich's reagent (2% p-dimethylaminobenzaldehyde w/v with glacial acetic acid). The plates were incubated for 10-30 minutes at room temperature and the absorbance was read at 490 nm. Typically, assays were performed in triplicate and the data analyzed using Excel software program (Microsoft). […] Typically, control values were averaged and subtracted from the sample values. The complete coding regions of murine IDO1 and IDO2 were cloned in-frame with the […] TAG coding region in pcDNA4/TO (Invitrogen) which contains a regulatory region that is repressed by the tetracyclin regulated repressor (TetR). The complete coding regions of IDO1 and IDO2 were generated using gene specific primers [IDO2 5'[…] ID NO: 16) and IDO1 5'[…] ID NO: 17)] and 3' primers that were gene specific and removed the termination codon [IDO[…] ID NO: 18) and IDO1 minus stop [NT] ID NO: 19)]. The IDO1 and 2 coding regions where then cloned in-frame with the […] carboxyl terminal Tag in the pcDNA4 TO vector (Invitrogen). IDO2 expressing 293 cells metabolize tryptophan and can be inhibited by 1-methyl-[…]). […] The cells were maintained in growth media plus supplements for 5 days, after which the media was harvested and subjected to analysis for the presence of kynurenine.

Data set [1] concerns allogeneic mouse concepti. The note with it: Mellor et al. 2001; Munn et al. 1998; cited from earlier work.
The next data set has as its system IDO2 activation of LIP. Put plainly: Western blot of LIP (NFIL-6) expression in IDO2 expressing T-REx cells. The note with it: for inhibition of IDO2 activation of LIP: Western blot (FIG. 9B). In kind it is cell-based. The procedure:
T-REx™ cells (control) and T-REx™ cells expressing IDO1 were either uninduced or induced with doxycycline in the presence or absence of added tryptophan (100 μM). […] T-REx™ cells (control) and T-REx™ cells expressing IDO2 were either uninduced or induced with doxycycline in the presence or absence of added tryptophan. Cells were also optionally treated with the D, L and mixed DL racemic isomers of 1-methyl-tryptophan, (1M-D-T, 1M-L-T and 1M-LD-T, respectively). […] T-REx™ cells expressing IDO2 were either uninduced or induced with doxycycline in the presence or absence of added tryptophan.
Cell lysates were prepared as follows: Cells were removed from the dish by scrapping or pipetting in PBS and collected by centrifugation (2000 rpm/5 minutes). The supernatant was discarded and the cell pellet was lysed in RIPA buffer [50 mM Tris-HCl pH 7.4/150 mM NaCl/1% Triton x-100/1% Sodium deoxycholate/0.1% SDS] plus a protease inhibitor cocktail (Calbiochem Cat #539134). Typically 5×10^5 cells were resuspended in 200 μL of RIPA buffer. Cells lysates were vortexed and incubated on ice or frozen at −20° C. until use. Prior to use lysates were clarified by centrifugation (10,000 rpm/15 minutes) and heat denatured at 95° C. in SDS/sample buffer (100 mM Tris/25% glycerol/2% SDS/0.01% bromophenol blue/25 mM DTT). Proteins were separated by PAGE using NuPAGE® Gels (Invitrogen) and transferred at 100 Volts on to Immobilon-NC Nitrocellulose membranes (Millipore, Billerica, Mass., Cat #HAHY00010) in transfer buffer (25 mM Tris pH 8.3/192 mM glycine/20% methanol). […] For secondary antibody applications, the secondary antibody containing HRP was added in blocking buffer at the appropriate dilution, incubated by shaking at room temperature for 1 hour, and washed 5-6 times in PBS/0.1% Tween. The western membranes were developed by Chemiluminescence using SuperSignal® West Pico substrate (Pierce, Rockford, Ill., Cat #34078), exposed to autography film for an appropriate period of time (3 seconds to 18 hours), and developed.
In general terms: Immunoblotting shows a protein as a band on a membrane.

Data set [2] concerns purified recIDO2 proteins (rmuIDO2 or rhuIDO2). The experiment in a line: Enzyme assay of purified recombinant IDO2 (kynurenine formed from L-tryptophan). Type of data set: biochemical, murine and human. The note with it: varying amounts 0-100 μM (FIG. 25). The procedure:
IDO2 activity was measured as the amount of kynurenine formed from L-tryptophan. The standard assay conditions consisted of a mixture containing 50 mM Pipes pH 6.5, between 50 and 600 nM of rmuIDO2 or rhuIDO2 (where 100 nM of rIDO2 is approximately 5.5 μg protein per mL reaction), 200 U catalase (0.2 mg/mL, sp act. ˜1000 U/mg), 200 μM L-tryptophan, 10 μM methylene blue and 20 mM ascorbic acid. The mixture was incubated at various times ranging from 15 minutes to 4 hours at 37° C. before the reaction was stopped by adding trichloroacetic acid (TCA) to 3% final. The samples were then heated to 50-60° C. for 30 minutes to convert N-formyl-kynureneine to kynurenine, clarified by centrifugation, and supernatants (100 μL) were removed to a new dish, mixed with 100 μL Ehrlich's reagent (2% p-dimethylaminobenzaldehyde w/v in glacial acetic acid), and incubated 10-30 minutes at room temperature. Absorbance at 490 nm was determined on a plate reader and the data collected and analyzed using Excel software (Microsoft). Typically, samples were analyzed in triplicate and control values were typically averaged and subtracted from sample values. Enzyme activity was estimated based on the conversion of tryptophan to kynurenine using linear regression analysis based on an absorbance standard curve derived from assay measurements on known amounts of kynurenine.

In another data set the test system is tumor. The settings on record: background statement; listed as L-1MT; cited from earlier work.
The target of the next data set is T2, IDO1 (Mus musculus, UniProt P28776).
T2 construct: The complete coding regions of murine IDO1 and IDO2 were cloned in-frame with the V5/His TAG coding region in pcDNA4/TO; expressed in transfected cells; host or cells: T-REx-293 cells (Invitrogen), pcDNA4/TO-muIDO1, doxycycline-induced
Type of data set: cell-based, murine. On the procedure:
This assay measures the product of the indoleamine 2,3-dioxygenase conversion of L-tryptophan to N-formyl-kynurenine by acid hydrolysis to kynurenine, which is measured indirectly though the absorbance (480 nm) of imine produced by the reaction of the aromatic amino group of klynurenine with p-dimethylaminobenzaldehyde (Ehrlich's reagent) as described by Takikawa et al. (J. Biol. Chem. (1988) 263:2041-2048). Typically, 200 μL of media from the test sample is combined with 12.5 μL of 30% TCA and incubated at 50° C. for 30 minutes. Evaporation was avoided by sealing the rim of the plate or tubes with parafilm. Samples are clarified by centrifugation for 10 minutes at 3-10K rpm. 100 μL of the supernatant was removed to a fresh well in an assay plate and mixed with 100 μL of fresh Ehrlich's reagent (2% p-dimethylaminobenzaldehyde w/v with glacial acetic acid). The plates were incubated for 10-30 minutes at room temperature and the absorbance was read at 490 nm. Typically, assays were performed in triplicate and the data analyzed using Excel software program (Microsoft). Background/control samples were typically derived from media from uninduced cells or cells that lack IDO1/2 expression vectors. Typically, control values were averaged and subtracted from the sample values. […]

Entries after “also recorded” stand apart in the source; their conditions may differ.

T2 sequence (P28776 whole entry): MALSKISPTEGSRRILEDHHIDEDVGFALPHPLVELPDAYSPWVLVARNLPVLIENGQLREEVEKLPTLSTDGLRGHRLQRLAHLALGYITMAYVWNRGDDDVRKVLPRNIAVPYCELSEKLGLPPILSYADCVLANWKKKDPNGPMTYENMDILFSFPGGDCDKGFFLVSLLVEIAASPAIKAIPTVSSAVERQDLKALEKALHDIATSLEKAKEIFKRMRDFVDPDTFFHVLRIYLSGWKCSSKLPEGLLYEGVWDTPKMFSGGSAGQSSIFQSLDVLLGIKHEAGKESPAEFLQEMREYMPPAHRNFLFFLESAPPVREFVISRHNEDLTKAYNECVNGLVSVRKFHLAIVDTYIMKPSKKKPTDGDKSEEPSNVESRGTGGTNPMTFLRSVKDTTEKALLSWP

With `Cn1cc(CC(N)C(=O)O)c2ccccc21` (racemic) [1M-LD-T, 1-Methyl-DL-Tryptophan], the “kynurenine production in IDO2 expressing cells” value on IDO2 is on record as “no changes in kynurenine levels”. In addition, in data set [1], the “rejection of allogeneic mouse concepti” value is “elicit MHC-restricted and T cell-mediated rejection of allogeneic mouse concepti”.
Regarding `Cn1cc(C[C@@H](N)C(=O)O)c2ccccc21` [1M-D-T, 1-Methyl-D-Tryptophan], the “kynurenine production in IDO2 expressing cells” value on IDO2 is recorded as “decrease in kynurenine production in the IDO2 expressing cells was observed only with 1M-D-T in a dose dependent manner”. In addition, the “inhibition of IDO2 activation of LIP” value with IDO2 activation of LIP is “inhibited”. The “activation of GCN2 kinase and subsequent altered LIP expression” value with IDO2 activation of LIP (summary statement) was “blocks the activation of GCN2 kinase and subsequent altered LIP expression”. The “inhibition of purified recIDO2 proteins” value in data set [2] was “inhibited”.
For the compound `Cn1cc(C[C@H](N)C(=O)O)c2ccccc21` [1M-L-T, 1-Methyl-L-Tryptophan], the antitumor activity result in the data set with tumor is “exhibits a characteristic pattern of antitumor activities; also recorded: effective at inhibiting IDO1 activity and tumor progression”. Also, the “kynurenine production in IDO2 expressing cells” value at IDO2 was “no changes in kynurenine levels”. Further, the “inhibition of IDO2 activation of LIP” value in the data set on IDO2 activation of LIP was “to a lesser extent”.
On to `CN1C(=O)C(Cc2c[nH]c3ccccc23)NC1=S` (centres unmarked) [MTH, 5-(indol-3-methyl)-3-methyl-2-thio-Hydantoin], for which the “toxicity of inhibitor to the cells” value on IDO1 is given as “not toxic to the cells”. Also, the “kynurenine production in IDO1 expressing cells” value on IDO1 (doxycycline-induced T-REx cells, increasing concentrations, 5 days (FIG. 8A)) is given as “decrease in kynurenine production in the IDO1 expressing cells was observed in a dose dependent manner”.
